Patent US8957064B2, “Fused pyrimidines” (Bayer Intellectual Property GmbH, priority 2009, dated 2015)

What was measured:
[1] = target: His-tagged human recombinant kinase full-length Akt2 activated by PDK1 (Homo sapiens (Human), UniProt P31751); experiment: Akt2 kinase assay (Akt2 TR-FRET assay, Biological Assay 2.0); type: biochemical; conditions: 10 μM ATP, 1 μM biotinylated peptide substrate, 60 min at 22° C.
Text: Biological Assay 2.0: Akt2 Kinase Assay
Akt2 inhibitory activity of compounds of the present invention was quantified employing the Akt2 TR-FRET assay as described in the following paragraphs.
(§1) His-tagged human recombinant kinase full-length Akt2 expressed in insect cells and activated by PDK1 was purchased form Invitrogen (part number PV 3975). As substrate for the kinase reaction the biotinylated peptide biotin-Ahx-KKLNRTLSFAEPG (C-terminus in amide form) was used which can be purchased e.g. from the company Biosynthan GmbH (Berlin-Buch, Germany).
(§2) For the assay 50 nl of a 100 fold concentrated solution of the test compound in DMSO was pipetted into a black low volume 384 well microtiter plate (Greiner Bio-One, Frickenhausen, Germany), 2 μl of a solution of Akt2 in assay buffer [50 mM TRIS/HCl pH 7.5, 5 mM MgCl2, 1 mM dithiothreitol, 0.02% (v/v) Triton X-100 (Sigma)] were added and the mixture was incubated for 15 min at 22° C. to allow prebinding of the test compounds to the enzyme before the start of the kinase reaction. Then the kinase reaction was started by the addition of 3 μl of a solution of adenosine-tri-phosphate (ATP, 16.7 μM=>final conc. in the 5 μl assay volume is 10 μM) and substrate (1.67 μM=>final conc. in the 5 μl assay volume is 1 μM) in assay buffer and the resulting mixture was incubated for a reaction time of 60 min at 22° C. The concentration of Akt2 in the assay was adjusted depending of the activity of the enzyme lot and was chosen appropriate to have the assay in the linear range, typical enzyme concentrations were in the range of about 0.2 ng/μl (final conc. in the 5 μl assay volume).
(§3) The reaction was stopped by the addition of 5 μl of a solution of HTRF detection reagents (200 nM streptavidine-XL665 [Cisbio] and 1.5 nM anti-phosho-Serine antibody [Millipore, cat. #35-001] and 0.75 nM LANCE Eu-W 1024 labeled anti-mouse IgG antibody [Perkin Elmer]) in an aqueous EDTA-solution (100 mM EDTA, 0.1% (w/v) bovine serum albumin in 50 mM HEPES/NaOH pH 7.5).
(§4) The resulting mixture was incubated 1 h at 22° C. to allow the binding of the biotinylated phosphorylated peptide to the streptavidine-XL665 and the antibodies. Subsequently the amount of phosphorylated substrate was evaluated by measurement of the resonance energy transfer from the anti-mouse-IgG-Eu-Chelate to the streptavidine-XL665. Therefore, the fluorescence emissions at 620 nm and 665 nm after excitation at 350 nm was measured in a TR-FRET reader, e.g. a Rubystar (BMG Labtechnologies, Offenburg, Germany) or a Viewlux (Perkin-Elmer). The ratio of the emissions at 665 nm and at […] was taken as the measure for the amount of phosphorylated substrate. The data were normalised (enzyme reaction without inhibitor=0% inhibition, all other assay components but no enzyme=100% inhibition).

[2] = target: His-tagged human recombinant kinase full-length Akt1 (Homo sapiens (Human), UniProt P31749); experiment: Akt1 kinase assay (Akt1 TR-FRET assay, Biological Assay 1.0); type: biochemical; conditions: 10 μM ATP, 1 μM biotinylated peptide substrate, 60 min at 22° C.
His-tagged human recombinant kinase full-length Akt1, sequence (P31749 whole entry): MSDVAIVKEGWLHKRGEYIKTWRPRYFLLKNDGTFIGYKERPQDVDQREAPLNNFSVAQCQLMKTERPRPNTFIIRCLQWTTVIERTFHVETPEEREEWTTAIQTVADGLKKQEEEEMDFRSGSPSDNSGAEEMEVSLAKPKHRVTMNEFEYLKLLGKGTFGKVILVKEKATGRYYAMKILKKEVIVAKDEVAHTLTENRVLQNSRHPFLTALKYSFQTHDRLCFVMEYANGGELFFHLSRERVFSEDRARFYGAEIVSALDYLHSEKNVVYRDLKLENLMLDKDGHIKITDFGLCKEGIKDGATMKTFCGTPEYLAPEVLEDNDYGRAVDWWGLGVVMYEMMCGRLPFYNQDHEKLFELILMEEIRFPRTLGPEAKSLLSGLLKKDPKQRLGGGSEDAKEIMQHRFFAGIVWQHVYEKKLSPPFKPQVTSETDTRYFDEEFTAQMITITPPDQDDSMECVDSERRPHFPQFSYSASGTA
Text: Biological Assay 1.0: Akt1 Kinase Assay
as §1, with “Akt1 inhibitory activity of compounds of the present invention may be quantified employing the Akt1 TR-FRET assay as described in the following paragraphs. His-tagged” for “His-tagged”, “Akt1” for “Akt2”, “cells” for “cells and activated by PDK1”, “3599).” for “3975).”
as §2, with “Akt1” for “Akt2”, “0.05” for “0.2”
as §3
as §4, with “HTRF” for “TR-FRET”

His-tagged human recombinant kinase full-length Akt2 activated by PDK1, sequence (P31751 whole entry): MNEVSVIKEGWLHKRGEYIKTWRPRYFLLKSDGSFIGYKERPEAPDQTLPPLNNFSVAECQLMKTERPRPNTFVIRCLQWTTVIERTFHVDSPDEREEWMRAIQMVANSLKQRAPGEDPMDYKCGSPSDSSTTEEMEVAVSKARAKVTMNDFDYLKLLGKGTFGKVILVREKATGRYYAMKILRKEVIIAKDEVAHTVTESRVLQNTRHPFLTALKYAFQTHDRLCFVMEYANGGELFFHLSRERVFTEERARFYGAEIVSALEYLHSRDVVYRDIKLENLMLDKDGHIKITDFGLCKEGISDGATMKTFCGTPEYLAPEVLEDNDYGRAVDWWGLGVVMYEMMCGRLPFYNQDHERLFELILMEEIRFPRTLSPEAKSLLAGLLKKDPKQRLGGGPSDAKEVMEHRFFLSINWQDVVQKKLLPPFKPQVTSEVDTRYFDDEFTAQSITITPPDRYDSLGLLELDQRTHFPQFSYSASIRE

Compound | IC50 [1] [µM] | IC50 [2] [µM]
Cc1nc2nc(-c3ccc(CN4CCC(n5ncc6c(N)ncnc65)CC4)cc3)c(-c3ccccc3)cn2n1 [Example 22.0, 1-{1-[4-(2-methyl-6-phenyl-[1,2,4]-triazolo[1,5-a]pyrimidin-5-yl)benzyl]-piperidin-4-yl}-1H-pyrazolo[3,4-d]pyrimidin-4-ylamine] | 0.417 | 0.288
Cc1nc2nc(-c3ccc(CN4CCC(c5nc6cccnc6[nH]5)CC4)cc3)c(-c3ccccc3)cn2n1 [Example 23.0, 5-{4-[4-(3H-imidazo[4,5-b]pyridin-2-yl)-piperidin-1-ylmethyl]-phenyl}-2-methyl-6-phenyl-[1,2,4]triazolo[1,5-a]pyrimidine] | 0.759 | 0.315
Cc1nc2nc(-c3ccc(CN4CCC(c5cnc6ccccc6n5)CC4)cc3)c(-c3ccccc3)cn2n1 [Example 24.1, 2-{1-[4-(2-methyl-6-phenyl-[1,2,4]triazolo[1,5-a]pyrimidin-5-yl)-benzyl]-piperidin-4-yl}-quinoxaline] | 9.88 | 4.37
Cc1nc2nc(-c3ccc(CN4CC(c5n[nH]c(-c6ccccn6)n5)C4)cc3)c(-c3ccccc3)cn2c1Br [Example 26.0, 3-bromo-2-methyl-6-phenyl-7-{4-[3-(5-pyridine-2-yl-1H-[1,2,4]triazole-3-yl]-azetidine-1-ylmethyl]-phenyl}-imidazo[1,2-a]pyrimidine] | 0.004 | 0.004
COC(=O)c1cnn2cc(-c3c(F)cccc3F)c(-c3ccc(CN4CC(c5n[nH]c(-c6cccc(C)n6)n5)C4)cc3)nc12 [Example 27.0, 6-(2,6-difluorophenyl)-5-(4-{3-[5-(6-methylpyridine-2-yl)-1H-[1,2,4]triazole-3-yl]-azetidine-1-ylmethyl}-phenyl)-pyrazolo[1,5-a]pyrimidine-3-carboxylic acid methyl ester] | 0.115 | 0.012
COC(=O)c1cnn2cc(-c3c(F)cccc3F)c(-c3ccc(CN4CC(c5n[nH]c(-c6ccccn6)n5)C4)cc3)nc12 [Example 28.0, 6-(2,6-difluorophenyl)-5-(4-{3-[5-(pyridine-2-yl)-1H-[1,2,4]triazole-3-yl]-azetidine-1-ylmethyl}-phenyl)-pyrazolo[1,5-a]pyrimidine-3-carboxylic acid methyl ester] | 0.761 | 0.014
CC(C)c1nc2nc(-c3ccc(CN4CC(c5n[nH]c(-c6ccccn6)n5)C4)cc3)c(-c3ccccc3)cn2n1 [Example 29.0] | 0.035 | 0.084
CC(C)c1nc2nc(-c3ccc(CN4CCC(c5cnc6ccccc6n5)CC4)cc3)c(-c3ccccc3)cn2n1 [Example 30.0, 2-{1-[4-(2-isopropyl-6-phenyl-[1,2,4]triazolo[1,5-a]pyrimidin-5-yl)benzyl]-piperidine-4-yl}-quinoxaline] | 0.509 | 6.7
Cc1cccc(-c2nc(C3CN(Cc4ccc(-c5nc6nc(C(C)C)nn6cc5-c5ccccc5)cc4)C3)n[nH]2)n1 [Example 31.0, 2-isopropyl-5-(4-{3-[5-(6-methyl-pyridine-2-yl)-1H-[1,2,4]triazolo-3-yl]-azetidine-1-ylmethyl}-phenyl)-6-phenyl-[1,2,4]triazolo[1,5-a]pyrimidine] | 0.014 | 0.07
COC(=O)c1cnn2cc(-c3ccc(F)cc3F)c(-c3ccc(CN4CC(c5n[nH]c(-c6ccccn6)n5)C4)cc3)nc12 [Example 32.0, 6-(2,4-difluorophenyl)-5-(4-{3-[5-(pyridine-2-yl)-1H-[1,2,4]triazole-3-yl]-azetidine-1-ylmethyl}-phenyl)-pyrazolo[1,5-a]pyrimidine-3-carboxylic acid methyl ester] | 0.214 | 0.007
Fc1ccc(-c2cn3ccnc3nc2-c2ccc(CN3CC(c4n[nH]c(-c5ccccn5)n4)C3)cc2)cc1 [Example 33.0, 6-(4-fluorophenyl)-7-{4-[3-(5-pyridine-2-yl-1H-[1,2,4]triazole-3-yl]-azetidine-1-ylmethyl]-phenyl}-imidazo[1,2-a]pyrimidine] | 0.253 | 0.026
Fc1ccc(-c2cn3ccnc3nc2-c2ccc(CN3CCC(c4cnc5ccccc5n4)CC3)cc2)cc1 [Example 34.0, 2-(1-{4-[6-(4-fluorophenyl)-imidazo[1,2-a]pyrimidin-7-yl]-benzyl}-piperidine-4-yl)-quinoxaline] | 2.29 | 0.365
Cc1cccc(-c2nc(C3CN(Cc4ccc(-c5nc6nc(C)nn6cc5-c5ccc(F)cc5F)cc4)C3)n[nH]2)n1 [Example 35.0, 6-(2,4-difluorophenyl)-2-methyl-5-(4-{3-[5-(6-methyl-pyridine-2-yl)-1H-[1,2,4]triazole-3-yl]-azetidine-1-ylmethyl}-phenyl)-[1,2,4]triazolo[1,5-a]pyrimidine] | 0.042 | 0.029
c1ccc(-c2cn3ccnc3nc2-c2ccc(CN3CCC(c4cnc5ccccc5n4)CC3)cc2)cc1 [Example 36.0, 2-{1-[4-(6-phenyl-imidazo[1,2-a]pyrimidin-7-yl)-benzyl]-piperidine-4-yl}-quinoxaline] | 0.589 | 0.07
Cc1cn2cc(-c3ccccc3)c(-c3ccc(CN4CCC(c5cnc6ccccc6n5)CC4)cc3)nc2n1 [Example 37.0, 2-{1-[4-(2-methyl-6-phenyl-imidazo[1,2-a]pyrimidin-7-yl)benzyl]-piperidine-4-yl}-quinoxaline] | 0.256 | 0.077
Cc1cccc(-c2nc(C3CN(Cc4ccc(-c5nc6nc(C)cn6cc5-c5ccccc5)cc4)C3)n[nH]2)n1 [Example 38.0, 2-methyl-7-(4-{3-[5-(6-methylpyridine-2-yl)-1H-[1,2,4]triazole-3-yl]-azetidine-1-ylmethyl}-phenyl)-6-phenyl-imidazo[1,2-a]pyrimidine] | 0.016 | 0.013
Cc1cccc(-c2nc(C3CN(Cc4ccc(-c5nc6nc(C7CC7)nn6cc5-c5ccc(F)cc5)cc4)C3)n[nH]2)n1 [Example 39.0, 2-cyclopropyl-6-(4-fluorophenyl)-5-(4-{3-[5-(6-methyl-pyridine-2-yl)-1H-[1,2,4]triazole-3-yl]-azetidine-1-ylmethyl}-phenyl)-[1,2,4]triazolo[1,5-a]pyrimidine] | 0.027 | 0.029
c1ccc(-c2cn3nc(C4CC4)nc3nc2-c2ccc(CN3CCC(c4cnc5ccccc5n4)CC3)cc2)cc1 [Example 40.0, 2-{1-[4-(2-cyclopropyl-6-phenyl-[1,2,4]triazolo[1,5-a]pyrimidin-5-yl)-benzyl]-piperidine-4-yl}-quinoxaline] | 0.273 | 0.247
